Experimental data taken from patent US5646246A, “Isolation and structural elucidation of the human cancer cell growth inhibitory cyclic peptides phakellistatin 4, 5, 6, 7, 8 and 9” (Arizona Board of Regents acting on behalf of Arizona State …, priority 1994, dated 1997).
≈ marks a conversion by molar mass, not a printed value. Where a SMILES comes first, the peptide text is derived from it.

Key:
Format in all cases: cell-based
[1] = test system: murine lymphocytic leukemia P388; experiment: in vitro murine P388 lymphocytic leukemia cell growth inhibition; settings: dose reducing percent growth to 50%
Excerpt: The following measures are used to express drug activity by giving the drug dose which reduces cell growth to a specified percentage of growth:
(§1) ED50 (P388) and GI50 (HTCL) are the drug doses needed to reduce the percent growth to 50%. There is no mathematical difference between ED50 and GI50, which are both calculated using the same formula. The only difference is historical usage. TGI, (Total Growth Inhibition), is the drug dose needed to yield zero percent growth, i.e., just as many cells at the end of the experiment as were present in the beginning. Whether just as many cells were killed as were produced (steady state), or no growth occurred (total inhibition), cannot be distinguished.
(§2) Each drug is tested at five (5) doses: 100--10--1--0.1--0.01 μg/ml. Percent Growths are calculated for each dose. The two (or three) doses with growth values above, below, (or near to) 50% growth are used to calculate the ED50 /GI50 using a linear regression formula. The log of the dose is used during the regression computation. If no dose yields a growth value under 50%, the results are expressed as: ED50 >(highest dose). If no dose yields growth higher than 50% growth, then ED50 <(lowest dose). Similar calculations are performed for the TGI at 0% growth, and at -50% growth for the LC50.
(§3) At the start of an experiment, cells from the in vitro cell cultures are inoculated into the appropriate tubes or microtiter plates. One set of control tubes/plates is immediately counted to determine the number of cells at the start of the experiment. This is the "baseline count", or "Tzero reading". At the end of the experiment (48 hours later), a second set of control tubes/plates is analyzed to determine the "Control Growth" value. The growth (or death) of cells relative to the initial quantity of cells is used to define the "Percent of Growth".

[2] = test system: NCI human cancer cell line panel; experiment: NCI human cancer cell line panel, in vitro primary screen; settings: for in vitro growth inhibitory activity against human cancer cell lines: result in words
Excerpt: Current research in the control of cancer in the U.S. is coordinated by the National Cancer Institute (NCI). To determine whether a substance has anti-cancer properties, the NCI has established a systematic protocol. This protocol, which involves the testing of a substance against a standard cell line panel containing 60 human tumor cell lines, has been verified and is accepted in scientific circles. The protocol, and the established statistical means for analyzing the results obtained by the standardized testing are fully described in the literature. See: Boyd, Dr. Michael R., Principles & Practice of Oncology, PPO Updates, Volume 3, Number 10, October 1989, for a general overview of the testing protocol; Monks, Anne et al., "Feasibility of a High-Flux Anticancer Drug Screen Using a Diverse Panel of Cultured Human Tumor Cell Lines", 83 J. Nat. Cancer Inst., No. 11, 757 (1991); and Paull, K. D., "Display and Analysis of Patterns of Differential Activity of Drugs Against Human Tumor Cell Lines; Development of Mean Graph and COMPARE Algorithm", 81 Journal of the National Cancer Institute Reports, No. 14, 1088, (1989), for a description of the methods of statistical analysis. Each of these references are incorporated herein by this reference thereto.
as §1
LC50, (Lethal Concentration 50%), is the drug concentration which reduces growth to -50%, i.e., removes half of the cells originally present at the beginning of the experiment.
as §2, §3

OVCAR-3 = experiment: human cancer cell line growth inhibition, ovarian OVCAR-3
Excerpt: as §1
(§4) Each drug is tested at five (5) doses: 100--10--1--0.1--0.01 μg/ml. Percent Growths are calculated for each dose. The two (or three) doses with growth values above, below, (or near to) 50% growth are used to calculate the ED50 /GI50 using a linear regression formula. […]
as §3

SK-MEL-5 = experiment: human cancer cell line growth inhibition, melanoma SK-MEL-5
Excerpt: as §1, §4, §3

SF-295 = experiment: human cancer cell line growth inhibition, CNS SF-295
Excerpt: as §1, §4, §3

A498 = experiment: human cancer cell line growth inhibition, renal A498
Excerpt: as §1, §4, §3

KM20L2 = experiment: human cancer cell line growth inhibition, colon KM20L2
Excerpt: as §1, §4, §3

NCI-H460 = experiment: human cancer cell line growth inhibition, lung NCI-H460
Excerpt: as §1, §4, §3

SMILES	ED50 (P388) [1]	GI50 ([2]; NCI human cancer cell line panel, quadruplicate experiments)	in vitro growth inhibitory activity against human cancer cell lines [2]	GI50 ovarian OVCAR-3 (OVCAR-3)	GI50 melanoma SK-MEL-5 (SK-MEL-5)	GI50 CNS SF-295 (SF-295)	GI50 renal A498 (A498)	GI50 colon KM20L2 (KM20L2)	GI50 lung NCI-H460 (NCI-H460)
CC[C@H](C)[C@@H]1NC(=O)[C@H](C)NC(=O)[C@H](CCSC)NC(=O)[C@H](C)NC(=O)[C@@H](CC(N)=O)NC(=O)[C@H](Cc2ccccc2)NC(=O)[C@@H]2CCCN2C1=O [phakellistatin 5, cyclo-(Pro-Phe-Asn-Ala-Met-Ala-Ile)]	0.23 µg/mL (≈ 0.309 µM)	~3000 nM	growth inhibitory activity was also demonstrated						
CC[C@H](C)[C@@H]1NC(=O)[C@@H]2CCCN2C(=O)[C@H](CC(C)C)NC(=O)C(Cc2c[nH]c3ccccc23)NC(=O)[C@@H]2CCCN2C(=O)[C@H](Cc2ccccc2)NC(=O)[C@@H]2CCCN2C1=O (stereo partly drawn) [phakellistatin 6, cyclo-(Pro-Trp-Leu-Pro-Ile-Pro-Phe)]	0.18 µg/mL (≈ 0.212 µM)		growth inhibitory activity was also demonstrated	0.025 µg/mL (≈ 0.0294 µM)	0.032 µg/mL (≈ 0.0376 µM)	0.041 µg/mL (≈ 0.0482 µM)	0.078 µg/mL (≈ 0.0917 µM)	0.021 µg/mL (≈ 0.0247 µM)	0.019 µg/mL (≈ 0.0223 µM)
CC[C@H](C)[C@@H]1NC(=O)[C@@H]2CCCN2C(=O)[C@@H]2CCCN2C(=O)[C@H]([C@@H](C)CC)NC(=O)[C@H](Cc2ccc(O)cc2)NC(=O)[C@@H]2CCCN2C(=O)[C@@H]2CCCN2C(=O)[C@H](CC(C)C)NC(=O)[C@H](C(C)C)NC(=O)[C@H](Cc2ccccc2)NC1=O [phakellistatin 8, cyclo-(Pro-Pro-Ile-Phe-Val-Leu-Pro-Pro-Tyr-Ile)] (cyclo(FVLPPYIPPI))	4.1 µg/mL (≈ 3.6 µM)		growth inhibitory activity was also demonstrated						
CC[C@H](C)[C@@H]1NC(=O)[C@@H]2CCCN2C(=O)[C@@H]2CCCN2C(=O)[C@H]([C@@H](C)CC)NC(=O)[C@H](Cc2ccc(O)cc2)NC(=O)[C@@H]2CCCN2C(=O)[C@@H]2CCCN2C(=O)[C@H](CC(C)C)NC(=O)[C@H](C)NC(=O)[C@H](Cc2ccccc2)NC1=O [phakellistatin 7, cyclo-(Pro-Pro-Ile-Phe-Ala-Leu-Pro-Pro-Tyr-Ile)] (cyclo(ALPPYIPPIF))	3.0 µg/mL (≈ 2.7 µM)		growth inhibitory activity was also demonstrated						
CC[C@H](C)[C@@H]1NC(=O)[C@@H]2CCCN2C(=O)[C@@H]2CCCN2C(=O)[C@H](C(C)C)NC(=O)[C@H](Cc2ccc(O)cc2)NC(=O)[C@@H]2CCCN2C(=O)[C@@H]2CCCN2C(=O)[C@H](CC(C)C)NC(=O)[C@H](C(C)C)NC(=O)[C@H](Cc2ccccc2)NC1=O [phakellistatin 9, cyclo-(Pro-Pro-Ile-Phe-Val-Leu-Pro-Pro-Tyr-Val)] (cyclo(FVLPPYVPPI))	1.7 µg/mL (≈ 1.51 µM)		growth inhibitory activity was also demonstrated						
